The values that follow come from a melting point compilation (Tetko et al.; mined from patent text by program, amines drawn as free bases though some values may be those of a salt).

Structures are written as SMILES.

One may read the melting point as the temperature of the solid-liquid transition.

As for `O=C(O)c1cccc(Cl)c1C(F)(F)F`, the melting point is 110 °C.
For `O=S(=O)(O)OC[C@H]1Cc2ccccc2CN1`, the melting point worked out at 318 °C.
With `COC(=O)NC1(C)CN(C(=O)Nc2ccc(C(F)(F)F)cc2)N=C1c1ccc(Cl)cc1` (centres undefined), the melting point is 179 to 181 °C.
The molecule `OCCC#Cc1ncccn1` had a melting point of 58 to 64 °C.
For `O=C(c1cccc([N+](=O)[O-])c1)n1nc(O)c2ccccc21`, the melting point was in the range of 232 to 234 °C.
As for `COc1cc2c3c(Br)cc(OC)c(OC)c3n(C(=O)c3ccc(C(C)(C)C)cc3)c2cc1OC`, the melting point was 136 to 138 °C.
The molecule `Cn1c(=O)nc(-c2ccccc2Cl)c2cc(Cl)sc21` came in with a melting point of 164 to 166 °C.
The molecule `Cn1cc(C(N)=O)c(=O)c2sccc21` displayed a melting point of 255 to 258 °C.
For `CCOC(=O)c1ccc(C#CCOc2cc3c(cc2C=O)C(C)(C)CCC3(C)C)cc1` the value was 114 to 115 °C.
The molecule `C#Cc1ccc(-c2c(C)nnc(Cl)c2-c2c(F)cc(F)cc2F)cc1` came in with a melting point of 174 to 175 °C.
In turn, `COC(=O)c1ccnc(Nc2ccc(SC)cc2)c1` gave a melting point of 142 °C.
Take `COc1ccnc(C(=O)N[C@H]2COC(=O)[C@H](CC(=O)OC(C)(C)C)[C@@H](OC(=O)C(C)C)[C@H](C)OC2=O)c1O`: the melting point is 192 to 194 °C.
In turn, `CCCCCCCC(=O)N(C)Cc1cc(-c2ccc(C=CC(=O)O)cc2)cs1` returned a melting point of 175 °C.
Under `Cc1ccc(C)n1Nc1nnc(N2CCOCC2)c2ccccc12` stands 255 to 260 °C; under `O=C1NC(C(Cl)(Cl)Cl)Nc2ccc([N+](=O)[O-])cc21` (centres undefined), 278 to 280 °C; under `CCOC(=O)c1cc(O)cc(OCC)c1`, 62 to 63 °C.
The molecule `CCCCCCCCCC[C@H](O)c1ccc2ccccc2c1` came in with a melting point of 53 to 54 °C.
For `O=[N+]([O-])c1cccc(Nc2nccc(-c3cccnc3)n2)c1`, the melting point lay within 212 to 213 °C.
Molecule `COc1ccc(-c2cc(C(F)F)nn2-c2ccc(S(N)(=O)=O)cc2)cc1F` returned a melting point of 159 to 161 °C.
`CC1(C)N=C(SCc2cccc3cccnc23)N=C1SCc1cccc2cccnc12` yielded a melting point of 101 to 104 °C.
`BrCCCCCc1nnnn1C1CCCCC1` returned a melting point of 57 to 59 °C.
Turning to `Cn1c(CO)nc2cc(Cl)cnc21`, the melting point was in the range of 141 to 142 °C.
Regarding `Cc1c(C(=O)N[C@H](C)[C@](O)(Cn2cncn2)c2ccc(F)cc2F)cnn1-c1ccc(OC(F)(F)F)cc1`, the melting point lay within 134 to 135 °C.
`O=C(Nc1ccc(S(=O)(=O)C(F)(F)F)cc1Cl)c1cc(-c2ccc(F)cc2F)cc(C23CC4CC(CC(C4)C2)C3)c1O` displayed a melting point of 177 to 178 °C.
With `Cc1ccc2scc(CCNc3ncnc4c3ncn4C3OC(CO)C(O)C3O)c2c1` (centres undefined), the melting point lay in the range of 158 to 160 °C.
On to `Nc1sc2c(c1C(=O)c1ccc3ccccc3c1)CCN(Cc1ccccc1)C2`, for which the melting point fell in the range of 174 to 177 °C.
`COc1ccc(C2=NN(Cc3ccc(O)cc3)C(=O)[C@H]3CCCC[C@@H]23)cc1OC` (relative stereo) showed a melting point of 177 to 179 °C.
Molecule `Cc1c(C(=O)O)c(CC(=O)O)n(C)c1C(=O)c1cccnc1` had a melting point of 186 to 188 °C.
For `CCCC12C=CC=CC1C(=O)N(c1nc(C#N)c(C#N)[nH]1)C2=O` (centres undefined) the value was 134 to 135 °C.
For the molecule `O=C(CCCCCCCCCCBr)Nc1ccc(O)cc1`, the melting point lay within 116 to 117 °C.
Regarding `CC(C)(C)OC(=O)NC(Cc1ccccc1)C(=O)OC(Cc1c[nH]cn1)C(=O)O` (centres undefined), the melting point lay in the range of 130 to 131 °C.
For `Cc1cccc(Nc2ccccc2C(=O)N(C)O)c1C` the value was 70 to 71 °C.
Under `CCNC(=O)NCC1=C(n2ccccc2=O)c2cc([N+](=O)[O-])ccc2OC1(C)C` stands 197 °C.
Turning to `Cc1ccc(-c2ccc3c(c2)C=C(C(=O)Nc2ccc(CN4CCN(C)CC4)cc2)CC3)cc1`, the melting point was 174 to 175 °C.
